# Measured values: patent US20110159603A1, “FLUORESCENT PROBE SPECIFIC TO HYDROGEN PEROXIDE” (THE UNIVERSITY OF TOKYO, priority 2008, published 2011)
# Columns and labels:
# RAW264.7 cells = experiment: Detection of hydrogen peroxide in live cells by fluorescence microscopy; type: cell-based; conditions: RAW264.7 cells stimulated with LPS 50 μg/ml and IFN-γ 100 unit/ml for 12 hours vs non-stimulated; observed 2 hours after loading; excitation 470 to 495 nm, fluorescence 510 to 550 nm
# Experimental: It was confirmed that Compound 5 was also usable for detection of hydrogen peroxide in live cells. The RAW264.7 cells were stimulated with a lipopolysaccharide (LPS, 50 μg/ml) and interferon-γ (IFN-γ, 100 unit/ml) for 12 hours, then a diacetylated compound of Compound 5 was loaded on the cells, and 2 hours later, the cells were observed under a fluorescence microscope using the U-MNIBA2 filter set produced by Olympus Corporation (excitation wavelength: 470 to 495 nm, fluorescence wavelength: 510 to 550 nm) (FIG. 2).
# [1] = Relative fluorescence intensity at 520 nm on adding other reactive oxygen species; conditions: hydroxyl radical 10 μM, peroxynitrite 10 μM, hypochlorite ion 10 μM, NOC13 100 μM or EP-1 100 μM; compound 1 μM; excitation 490 nm
# Experimental: (§1) The addition of hydroxyl radical (10 μM) to the test system was performed by the method of adding hydrogen peroxide (10 μM) to a solution of Compound 5, and then immediately adding a solution of iron(II) perchlorate (10 μM) in purified water to the mixture to generate hydroxyl radicals by the Fenton reaction.
# [2] = Fluorescence spectrum change on adding hydrogen peroxide; conditions: excitation 490 nm
# Experimental: [The source words this procedure for another target and reports this target under the same test.] as §1
# [3] = Relative fluorescence intensity with superoxide from hypoxanthine/xanthine oxidase (HPX/x.o.) system; conditions: compound 10 μM
compound,measurement,setting,value
"N#Cc1ccc(C(=O)C(=O)c2ccc(-c3c4ccc(=O)cc-4oc4cc(O)ccc34)c(C(=O)O)c2)cc1 [Compound 5, 5-(4-cyanobenzoyl)carbonylfluorescein]",fluorescence intensity in cells,RAW264.7 cells,higher when loading Compound 5 on the stimulated cells (B) than on the non-stimulated cells (A)
same,relative fluorescence intensity at 520 nm,[1],no increase of fluorescence intensity
same,change of the fluorescence spectrum over time,"[2]; hydrogen peroxide 100 μM added to compound 1 μM, after 5, 15, 30 and 60 minutes",increase of fluorescence intensity was observed over time
same,relative fluorescence intensity at 520 nm,"[2]; hydrogen peroxide 100 μM for 30 minutes, compound 1 μM",increase of fluorescence intensity was observed only when hydrogen peroxide was added
same,relative fluorescence intensity at 520 nm,[3]; HPX/x.o. system with SOD 60 Unit/L added,no significant change in the degree of the increase of fluorescence intensity
same,relative fluorescence intensity at 520 nm,[3]; HPX/x.o. system with catalase 100 Unit/L added,reduced to around the level of the control
same,relative fluorescence intensity at 520 nm,"[3]; superoxide 10 μM, HPX/x.o. system (x.o. 2.38 mUnit/L, HPX 10 μM), versus control",higher in the case using the HPX/x.o. system than in the case of the control
